Data on two compounds can be found in publication PMC9596378, “Discovery and molecular basis of subtype-selective cyclophilin inhibitors” (Nature Chemical Biology, 2022).

SMILES strings stand for the structures. Values joined by “and” are separate entries in the source; they are usually repeats but may differ in a detail not shown here. Equal values may be shown once. “Also recorded” adds a separate entry of the source. A value given as a limit tells only on which side of the number the result lay.

The subject of data set [1] is HeLa cells. The experiment in a line: Fluorescence microscopy of Cy5-conjugated compounds. It is filed as cell-based, human. How it is done: Cells were seeded into 96-well, black, clear-bottom, TC-treated plates, in DMEM supplemented with 10% FBS 24 h prior at a density where wells were ~80% confluent at the time of the experiment. Medium was removed and cells were then stained with 50 µL mixture containing Cy5-labeled compound (6 µM) in Kreb’s ringer solution HEPES buffered pH 7.2 (KRB), for 1 h at 37 °C. Then, 50 µL Hoechst 33342 (8 µM) and Mitotracker Green FM (0.1 µM) in KRB was added directly to wells containing cells and incubated for 15 min at 37 °C. Medium was removed and cells were washed twice with 100 µL KRB. Cells were then kept adherent to the wells in 100 µL KRB for imaging. Fluorescence microscopy was conducted on an Opera Phenix Plus High-Content Screening System, using Alexa 488, Alexa 647, and Hoescht 33342 channels. Images were analyzed using Harmony v.4.9.

The subject of data set [2] is HepG2 cells. The experiment in a line: Cellular esterase activity on ester pro-drugs. Set-up: unit: %. As to conditions: HepG2 intracellular (9h); three replicate columns. It is filed as in vitro ADME, human. The method, then:
(§1) Cells were seeded in 96-well, clear, flat-bottom, TC-treated plates in DMEM supplemented with 10% FBS for HEK293T, HeLa, and MEFs, F-12K supplemented with 10% FBS for A549, or MEM supplemented with 10% FBS for HepG2. Cells were seeded 24 h prior at a density where wells were ~70% confluent at the time of the experiment. Medium was removed and cells were incubated with 100 µL mixture containing each Cy5-conjugated compound (6 µM) in their respective medium at 1% DMSO for 48 h (36 h for HepG2) at 37 °C at 5% CO2. Supernatant was removed, and cells were washed twice with 100 µL PBS pH 7.4 (Gibco). Cells were then lysed for 15 min with 30 µL 10 mM Tris-HCl pH 8.0 buffer containing 0.05% SDS. Lysates were diluted with 100 µL acetonitrile and filtered. Lysates were analyzed by LC–MS at Harvard’s Center for Mass Spectroscopy. Di-ester, mono-ester, and di-acid abundances were quantified by total ion count of the primary isotope, and the three compounds were summed and each one expressed as a fraction of the total sum.

Data set [3] has as its system HEK293T cells. The experiment in a line: Cellular esterase activity on ester pro-drugs. It is filed as in vitro ADME, human. Set-up: unit not given here. As to conditions: HEK293T intracellular (9f); three replicate columns. The method, then:
as §1

Data set [4] deals with HeLa cells. The experiment in a line: Cellular esterase activity on ester pro-drugs. On the set-up: unit not given here. As to conditions: Hela intracellular (9e); three replicate columns. It is filed as in vitro ADME, human. How it is done: as §1
Data set [5] has as its target CypD (Homo sapiens, UniProt P30405). The experiment in a line: Chymotrypsin coupled prolyl-isomerase assay. Conditions: read-out: Wild-Type Cyclophilin Prolyl Isomerase Inhibition IC50 Values, CypD; wild-type CypD.
Data set [6] relates to A549 cells. The experiment in a line: Cellular esterase activity on ester pro-drugs. Set-up: Di-ester: unit not given here. As to conditions: for intracellular conversion to di-acid (in words): A549, HeLa, HEK293T, HepG2, MEFs; for Di-ester: A549 intracellular (9d), three replicate columns. It counts as in vitro ADME, human. How it is done: as §1
For data set [7], the system named is MEFs. The experiment in a line: Cellular esterase activity on ester pro-drugs. Conditions: SV40 MEF intracellular (9g); three replicate columns. It is filed as in vitro ADME, mouse. Set-up: unit not given here. The method, then:
as §1

The target of data set [8] is T1, CES1 (Homo sapiens, UniProt P23141).
T1 construct: purchased R&D Systems
T1 sequence (P23141 18-567): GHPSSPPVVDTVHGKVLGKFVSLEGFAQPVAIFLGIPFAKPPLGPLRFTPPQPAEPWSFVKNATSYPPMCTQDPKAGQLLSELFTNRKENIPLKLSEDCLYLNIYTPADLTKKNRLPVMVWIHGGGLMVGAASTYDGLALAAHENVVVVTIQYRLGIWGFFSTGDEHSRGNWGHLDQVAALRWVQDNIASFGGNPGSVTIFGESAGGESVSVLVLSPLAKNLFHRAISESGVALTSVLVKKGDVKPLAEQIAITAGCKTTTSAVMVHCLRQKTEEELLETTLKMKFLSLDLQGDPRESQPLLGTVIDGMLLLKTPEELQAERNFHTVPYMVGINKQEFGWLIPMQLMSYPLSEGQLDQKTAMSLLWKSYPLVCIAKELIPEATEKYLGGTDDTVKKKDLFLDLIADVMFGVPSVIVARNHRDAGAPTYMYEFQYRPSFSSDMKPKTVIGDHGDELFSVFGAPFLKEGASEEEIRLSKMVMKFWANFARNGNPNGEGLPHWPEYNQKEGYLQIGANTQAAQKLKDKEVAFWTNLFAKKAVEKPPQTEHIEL
The experiment in a line: In vitro esterase activity on ester pro-drugs. It is filed as in vitro ADME. Set-up: unit not given here. Conditions: CES1 (9b); three replicate columns. The method, then:
(§2) In PCR tubes, ester compound (6 µM) and either buffer only, CES1 (0.25 µM), or CES2 (0.25 µM) was diluted in 100 mM Tris-HCl buffer, pH 7.4, with a final DMSO concentration of 1%. Samples were maintained on a PCR block at 37 °C for 8 h. After incubation, samples were diluted with 20 µL acetonitrile and analyzed by LC–MS at Harvard’s Center for Mass Spectroscopy. Di-ester, mono-ester, and di-acid abundances were quantified by total ion count of the primary isotope and the three compounds were summed and each one expressed as a fraction of the total sum.

The target of data set [9] is T2, CES2 (Homo sapiens, UniProt O00748).
T2 construct: purchased R&D Systems
T2 sequence (O00748 27-559): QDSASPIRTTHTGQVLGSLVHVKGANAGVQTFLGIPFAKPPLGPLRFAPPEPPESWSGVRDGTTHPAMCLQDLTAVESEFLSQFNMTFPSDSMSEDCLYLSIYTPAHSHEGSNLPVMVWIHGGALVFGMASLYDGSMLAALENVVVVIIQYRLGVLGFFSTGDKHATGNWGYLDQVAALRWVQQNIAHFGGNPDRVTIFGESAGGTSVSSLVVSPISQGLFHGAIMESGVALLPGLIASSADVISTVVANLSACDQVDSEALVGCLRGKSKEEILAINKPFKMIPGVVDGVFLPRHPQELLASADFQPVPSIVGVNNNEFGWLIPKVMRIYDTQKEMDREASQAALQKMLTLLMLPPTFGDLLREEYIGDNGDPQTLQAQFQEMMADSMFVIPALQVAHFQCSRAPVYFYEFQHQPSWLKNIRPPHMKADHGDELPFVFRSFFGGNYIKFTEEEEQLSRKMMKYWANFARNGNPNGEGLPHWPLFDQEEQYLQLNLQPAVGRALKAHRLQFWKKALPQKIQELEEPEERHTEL
The experiment in a line: In vitro esterase activity on ester pro-drugs. It counts as in vitro ADME. Set-up: unit not given here. As to conditions: CES2 (9c); three replicate columns. The method, then:
as §2

A short description of data set [10]: In vitro ester pro-drug stability, buffer only. It is filed as in vitro ADME. As to conditions: 8 h, 6 µM, pH 7.4. How it is done:
as §2

Sequence of CypD (P30405 45-207): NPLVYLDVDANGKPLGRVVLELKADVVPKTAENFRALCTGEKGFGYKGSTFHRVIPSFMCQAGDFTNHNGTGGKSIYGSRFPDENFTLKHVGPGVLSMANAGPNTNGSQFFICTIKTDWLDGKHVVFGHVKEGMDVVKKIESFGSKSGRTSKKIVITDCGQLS

As usually defined, the IC50 is the concentration that gives 50% inhibition. On to `CCOC(=O)C(Cc1ccc(-c2ccc(CC3NC(=O)C4(Cc5ccccc5)CCCN(C4)C(=O)C=CC(=O)NCCC(C(=O)NCCNC(=O)CCCCCN4C(=CC=CC=CC5=[N+](C)c6ccccc6C5(C)C)C(C)(C)c5ccccc54)NC(=O)Cc4ccccc4CNC3=O)cc2)cc1)C(=O)OCC` (centres unmarked) [Compound B52-Et-Cy5], for which, in data set [1], the “plasma membrane permeability / mitochondrial localization (in words)” value is “good mitochondrial localization; also recorded: good plasma membrane permeability”. In addition, the Di-ester in data set [2] was 45 and 44 and 43; in data set [3] it was 9 and 11 and 8; in data set [4], 1; in data set [6], 0 (2×) and 1; in data set [7], 8 and 6 and 7; in [8], 13 and 14 and 16. Also, the Di-ester was 30 and 35 and 21 in data set [9]; 100 in [10]. Besides, in [5], the IC50 is more than 2000 nM. Besides, the “intracellular conversion to di-acid (in words)” value in data set [6] was “readily converted to the corresponding di-acids intracellularly”. This compound also showed a Di-acid in data set [10] of 0. For the same compound, in data set [10], the Mono-ester turned out to be 0.
With `CCOC(=O)CC(CC(=O)OCC)c1ccc(-c2ccc(CC3NC(=O)C4(Cc5ccccc5)CCCN(C4)C(=O)C=CC(=O)NCCC(C(=O)NCCNC(=O)CCCCCN4C(=CC=CC=CC5=[N+](C)c6ccccc6C5(C)C)C(C)(C)c5ccccc54)NC(=O)Cc4ccccc4CNC3=O)cc2)cc1` (centres unmarked) [Compound B53-Et-Cy5], the “plasma membrane permeability / mitochondrial localization (in words)” value in [1] is recorded as “good mitochondrial localization; also recorded: good plasma membrane permeability”. In addition, the Di-ester is 67 and 68 (2×) in data set [2]; 74 (2×) and 72 in data set [3]; 20 and 12 (2×) in [4]; 18 and 14 and 21 in data set [6]; 36 and 40 and 39 in data set [7]; 12 and 10 and 13 in data set [8]. Further, the Di-ester in [9] is 21 (2×) and 11; in data set [10], 100. For the same compound, in [5], the 50% inhibitory concentration (IC50) was more than 2000 nM. The “intracellular conversion to di-acid (in words)” value in data set [6] was “readily converted to the corresponding di-acids intracellularly”. Moreover, the Di-acid in [10] amounted to 0. The compound further came in with a Mono-ester in data set [10] of 0.
